Earlier results on 1 compound are cited in article PMC3674230 (Chemical communications (Cambridge, England), 2012).

The data set concerns Zn(II)-dependent matrix metalloproteinases (MMP). The settings on record: direct metal coordination.

Regarding `CC(=O)NO` [acetohydroxamic acid], the IC50 is around 25 mM.

For orientation: IC50 means the midpoint of a concentration-inhibition curve.
